Results as given in patent US11771765B2, “Light augmented treatment method” (The Procter & Gamble Company, priority 2019, dated 2023).
Like-named read-outs stand apart in the source and are kept apart here.

How the values were obtained:
M. furfur CBS 7982 = assay: Fractional Inhibitor Concentration (FIC): antimicrobial plus 409 nm light on M. furfur growth; type: cell-based, Malassezia furfur; details: for shortest light exposure time when applied in combination to give growth inhibition: 409 nm light, with the lowest inhibiting concentration; for growth, OD 600 nm: 16 h growth; for lowest concentration to give growth inhibition: antimicrobial alone, no light; for lowest concentration to give growth inhibition / lowest concentration when applied in combination with light to give growth inhibition: inhibition = OD <=50% of untreated control; for FIC value / Combinatorial Effect: antimicrobial plus 409 nm light; for Combinatorial Effect: classified by FIC value; for lowest concentration when applied in combination with light to give growth inhibition: with 409 nm light
Protocol: Fractional Inhibitor Concentration (FIC) is a conventional methodology for evaluating the interaction of two antimicrobial chemicals. […] In an embodiment of the present invention, FIC is used to determine combinatorial effects of one chemical and exposure to light on Malassezia growth and/or viability in an in vitro system.
• 1. M. furfur CBS 7982 cells are exposed to a varying concentrations of an antimicrobial active (e.g. ZPT, Piroctone Olamine) for a specified amount of time (e.g. 2 min to 3 hours). • 2. After exposure, the antimicrobial is washed away by centrifugation of the cells and a series of washes • 3. Cells are then exposed to light at a wavelength of 409 nm for varying lengths of time • 4. Cells are then allowed to grow up overnight (e.g. 17 h) to determine the impact of the treatment on viability and growth of the organism by measuring OD600 II. Data Analysis: • 1. Inhibition of growth is determined to be where the OD value obtained is <=50% of the untreated control • 2. The lowest concentration value of the antimicrobial agent which inhibits growth is determined • 3. Likewise, the shortest light exposure time is determined that gives growth inhibition • 4. Finally, the combination of the lowest concentration of the antimicrobial and the shortest light exposure time that provides growth inhibition is determined • 5. The FIC value is determined using the calculation below:
[formula] • 6. The combinatorial effect of the antimicrobial and light is classified according to the chart below: […]
(§1) M. furfur is incubated for one hour with varying concentrations of Piroctone Olamine. Cell pellets are collected by centrifugation so that most of the anti-fungal material has been removed. The cell pellet is suspended in PBS and 500 uL samples are distributed to four 12 well plates and treated with light (409 nm) for 1, 10 or 60 minutes or stored in the dark. Samples are then diluted into mDixon, and incubated for 16 h with subsequent growth measured by OD 600 nm.
as §1, with “Hinokitiol.” for “Piroctone Olamine.”, “27” for “16”, “nm. […]” for “nm.”

S. cerevisiae BY4741 = details: for 17 h growth: YNB Ethanol
Protocol: Cells are grown in the medium of choice, generally one requiring respiration. In the case of Malassezia furfur that medium is modified Dixon medium (mDixon) (per one liter: 36 g malt extract (Difco 0186-17), 20 g ox bile (provided by American Laboratories, Inc., of Omaha, Nebraska, as Lot No. 03130792), 10 ml Tween 40 (Aldrich 27435-6), 6 g peptone (Difco 0118-17), 2 ml oleic acid (Baker 2114-01), and 2 ml glycerol (Sigma G-7893)). [Candida and YPG, Saccharomyces and YNB (without amino acids) to which we added 40 μg/ml each of uracil, histidine, and methionine plus 130 μg/ml leucine and 2% ethanol and 0.1% yeast extract.] Conventional medium may also be used for other microbials. Starting cultures are prepared by diluting a fresh overnight culture that is out of log phase 1:100 and incubating with shaking at 31° C. in a 250 mL shake flask (Corning, 431144) with 20 mL medium shaking at 200-250 rpm for about 3 hours to ensure the cells had returned to growth phase. At this time, the test agent is added to the flasks to afford the final concentration for testing. The cells are cultured for 1 hour with the test agent. At this time, the cells typically have an OD at 600 nm in the range of 0.25 to 0.8. Generally, we isolate 2.5 OD*mLs of cells calculated as desired OD*mLs divided by the OD600 of the cells. These media samples are centrifuged (Beckman Coulter Allegra™ 6KR centrifuge) 10 minutes at RT at 3200 rpm to pellet the cells. The supernatant is poured off and the tubes are set upside down on a folded paper towel to drain off the remains of media. Two and one half milliliters of PBS (Gibco, pH 7.4, without magnesium chloride or calcium chloride, 14190-144) is added and the cells resuspended. One mL of cells is transferred to each of two 12-well plates (Falcon, polystyrene, 353043). One plate is stored in the dark and the other is exposed to the light with the plate cover on the plate. […] When the light exposure is completed, the samples are mixed by slowly vortexing or pipetting and 0.65 mL of each sample is transferred to 13 mL of medium for overnight growth at 31° C. with shaking. The following morning, typically 18 hours later, the ODs at 600 nm are determined. Successful materials are those that show at least a 50% reduction in growth after light exposure relative to a dark sample.
S. cerevisiae is exposed to light from LED flashlights of the indicated wavelength as well as a painter's light/worklight, commonly found at a hardware store, which provides a broad spectrum of wavelengths of light. Yeast has been pretreated as indicated, prior to light exposure.

Structure (SMILES): Cc1cc(CC(C)CC(C)(C)C)n(O)c(=O)c1.NCCO (stereo not shown) [Piroctone Olamine, 1-Hydroxy-4-methyl-6-(2,4,4-trimethylpentyl)-2-pyridone monoethanolamine salt]
- shortest light exposure time when applied in combination to give growth inhibition (M. furfur CBS 7982): 1 min
- growth, OD 600 nm (M. furfur CBS 7982; Piroctone Olamine 4 ppm 1 h, 409 nm light 0 min): 3.6
- growth, OD 600 nm (M. furfur CBS 7982; Piroctone Olamine 4 ppm 1 h, 409 nm light 1 min): 4.1
- growth, OD 600 nm (M. furfur CBS 7982; Piroctone Olamine 4 ppm 1 h, 409 nm light 10 min): 3.9
- growth, OD 600 nm (M. furfur CBS 7982; Piroctone Olamine 4 ppm 1 h, 409 nm light 60 min): 3.7
- growth, OD 600 nm (M. furfur CBS 7982; Piroctone Olamine 8 ppm 1 h, 409 nm light 0 min): 3.9
- growth, OD 600 nm (M. furfur CBS 7982; Piroctone Olamine 8 ppm 1 h, 409 nm light 1 min): 0.1
- growth, OD 600 nm (M. furfur CBS 7982; Piroctone Olamine 8 ppm 1 h, 409 nm light 10 min): 0.0
- growth, OD 600 nm (M. furfur CBS 7982; Piroctone Olamine 8 ppm 1 h, 409 nm light 60 min): 0.0
- growth, OD 600 nm (M. furfur CBS 7982; Piroctone Olamine 16 ppm 1 h, 409 nm light 0 min): 2.6
- growth, OD 600 nm (M. furfur CBS 7982; Piroctone Olamine 16 ppm 1 h, 409 nm light 1 min): 0.1
- growth, OD 600 nm (M. furfur CBS 7982; Piroctone Olamine 16 ppm 1 h, 409 nm light 10 min): 0.0
- growth, OD 600 nm (M. furfur CBS 7982; Piroctone Olamine 16 ppm 1 h, 409 nm light 60 min): 0.0
- growth, OD 600 nm (M. furfur CBS 7982; Piroctone Olamine 32 ppm 1 h, 409 nm light 0 min): 2.1
- growth, OD 600 nm (M. furfur CBS 7982; Piroctone Olamine 32 ppm 1 h, 409 nm light 1 min): 0.2
- growth, OD 600 nm (M. furfur CBS 7982; Piroctone Olamine 32 ppm 1 h, 409 nm light 10 min): 0.0
- growth, OD 600 nm (M. furfur CBS 7982; Piroctone Olamine 32 ppm 1 h, 409 nm light 60 min): 0.0
- growth, OD 600 nm (M. furfur CBS 7982; Piroctone Olamine 64 ppm 1 h, 409 nm light 0 min): 1.3
- growth, OD 600 nm (M. furfur CBS 7982; Piroctone Olamine 64 ppm 1 h, 409 nm light 1 min): 0.1
- growth, OD 600 nm (M. furfur CBS 7982; Piroctone Olamine 64 ppm 1 h, 409 nm light 10 min): 0.0
- growth, OD 600 nm (M. furfur CBS 7982; Piroctone Olamine 64 ppm 1 h, 409 nm light 60 min): 0.0
- lowest concentration to give growth inhibition (M. furfur CBS 7982): 64 ppm
- FIC value (M. furfur CBS 7982): 0.14
- Combinatorial Effect (M. furfur CBS 7982): synergistic
- lowest concentration when applied in combination with light to give growth inhibition (M. furfur CBS 7982): 8 ppm

Structure (SMILES): [O-]n1ccccc1=S.[O-]n1ccccc1=S.[Zn+2] [ZPT, zinc salt of 1-hydroxy-2-pyridinethione]
- 17 h growth (S. cerevisiae BY4741; 0.8 ppm, 395 nm light): 0.7205
- 17 h growth (S. cerevisiae BY4741; 0.8 ppm, 520 nm light): 1.418
- 17 h growth (S. cerevisiae BY4741; 0.8 ppm, 580 nm light): 1.332
- 17 h growth (S. cerevisiae BY4741; 0.8 ppm, Broad Spectrum light): 0.525
- 17 h growth (S. cerevisiae BY4741; 0.8 ppm, Dark): 1.5185
- 17 h growth (S. cerevisiae BY4741; 1.6 ppm, 395 nm light): 0.3435
- 17 h growth (S. cerevisiae BY4741; 1.6 ppm, 520 nm light): 1.3615
- 17 h growth (S. cerevisiae BY4741; 1.6 ppm, 580 nm light): 0.9245
- 17 h growth (S. cerevisiae BY4741; 1.6 ppm, Broad Spectrum light): 0.303
- 17 h growth (S. cerevisiae BY4741; 1.6 ppm, Dark): 1.525
- sensitivity of treated yeast to light (S. cerevisiae BY4741; ZPT-treated, LED flashlights 395, 520, 580 nm): sensitive to a 395 nm flashlight, but not two other wavelengths of light
- shortest light exposure time when applied in combination to give growth inhibition (M. furfur CBS 7982): 2 min
- growth, OD 600 nm (M. furfur CBS 7982; ZPT 1.25 ppm 3 h, 409 nm light 0 min): 7.76
- growth, OD 600 nm (M. furfur CBS 7982; ZPT 1.25 ppm 3 h, 409 nm light 2 min): 7.24
- growth, OD 600 nm (M. furfur CBS 7982; ZPT 1.25 ppm 3 h, 409 nm light 10 min): 6.24
- growth, OD 600 nm (M. furfur CBS 7982; ZPT 1.25 ppm 3 h, 409 nm light 60 min): 1.96
- growth, OD 600 nm (M. furfur CBS 7982; ZPT 2.5 ppm 3 h, 409 nm light 0 min): 7.12
- growth, OD 600 nm (M. furfur CBS 7982; ZPT 2.5 ppm 3 h, 409 nm light 2 min): 3.35
- growth, OD 600 nm (M. furfur CBS 7982; ZPT 2.5 ppm 3 h, 409 nm light 10 min): 0.31
- growth, OD 600 nm (M. furfur CBS 7982; ZPT 2.5 ppm 3 h, 409 nm light 60 min): 0.03
- growth, OD 600 nm (M. furfur CBS 7982; ZPT 5 ppm 3 h, 409 nm light 0 min): 6.21
- growth, OD 600 nm (M. furfur CBS 7982; ZPT 5 ppm 3 h, 409 nm light 2 min): 5.30
- growth, OD 600 nm (M. furfur CBS 7982; ZPT 5 ppm 3 h, 409 nm light 10 min): 3.72
- growth, OD 600 nm (M. furfur CBS 7982; ZPT 5 ppm 3 h, 409 nm light 60 min): 0.87
- growth, OD 600 nm (M. furfur CBS 7982; ZPT 10 ppm 3 h, 409 nm light 0 min): 4.85
- growth, OD 600 nm (M. furfur CBS 7982; ZPT 10 ppm 3 h, 409 nm light 2 min): 4.91
- growth, OD 600 nm (M. furfur CBS 7982; ZPT 10 ppm 3 h, 409 nm light 10 min): 4.06
- growth, OD 600 nm (M. furfur CBS 7982; ZPT 10 ppm 3 h, 409 nm light 60 min): 0.83
- growth, OD 600 nm (M. furfur CBS 7982; ZPT 20 ppm 3 h, 409 nm light 0 min): 0.51
- growth, OD 600 nm (M. furfur CBS 7982; ZPT 20 ppm 3 h, 409 nm light 2 min): 0.58
- growth, OD 600 nm (M. furfur CBS 7982; ZPT 20 ppm 3 h, 409 nm light 10 min): 0.64
- growth, OD 600 nm (M. furfur CBS 7982; ZPT 20 ppm 3 h, 409 nm light 60 min): 0.37
- lowest concentration to give growth inhibition (M. furfur CBS 7982): 10 ppm
- FIC value (M. furfur CBS 7982): 0.28
- Combinatorial Effect (M. furfur CBS 7982): synergistic
- lowest concentration when applied in combination with light to give growth inhibition (M. furfur CBS 7982): 2.5 ppm
